Data: patent publication US12582622B2, “Sodium oxybate to treat idiopathic hypersomnia” (priority 2020, dated 2026)

Experiments:
narcolepsy = conditions: in vivo; cited from earlier work
[1] = tested on: subjects with Idiopathic Hypersomnia; experiment: Study of the efficacy of sodium oxybate (Xyrem) oral solution: ESS, PGIc, IHSS (Example 2); type: in vivo, human; conditions: randomized withdrawal portion of the trial
Excerpt: (§1) This is a study of the efficacy and safety of sodium oxybate (Xyrem) oral solution in subjects with Idiopathic Hypersomnia. The study design is analogous to the study described in Example 1.
During the Open-label Treatment Titration and Optimization Period subjects will initiate sodium oxybate as either as a once or twice nightly dosing regimen at the discretion of the investigator. The dosing regimen of sodium oxybate may be adjusted as described in Example 1 until an optimally effective and tolerable dose regimen is established. The aim of the sodium oxybate dose titration and optimization is to maximize efficacy (reduction in IH symptoms, e.g., EDS, sleep inertia, and long sleep duration) while ensuring adequate nocturnal sleep and minimizing risk associated with safety and tolerability.
Subjects who have reached an optimized dosing regimen, and who have completed the Open label Treatment Titration and Optimization Period, will then enter the 2-week Stable Dose Period as described in Example 1.
Subjects who meet the randomization criteria at the end of the Stable Dose Period will be randomized to receive sodium oxybate at the stable dose and regimen or placebo at a volume and regimen equivalent to the sodium oxybate dose and regimen for 2 weeks. Randomization will be stratified by the subject's use of stimulant agent at baseline per the following baseline medication groups: 1) subjects not currently taking sodium oxybate but are taking a stimulant or alerting agent; or 2) subjects not currently taking sodium oxybate or a stimulant or alerting agent.
(§2) Subjects who complete the Double-blind Randomized Withdrawal Period will enter a 24-week Open-label Safety Extension Period as described in Example 1. A Safety Follow-up visit will occur 2 weeks after the Open-label Safety Extension Period (completion of study).

[2] = tested on: subjects with Idiopathic Hypersomnia; experiment: Safety of sodium oxybate (Xyrem) oral solution (Example 2); design: species or system human; conditions: in vivo
Excerpt: as §1, §2

Structure (SMILES)	REM latency (narcolepsy)	signs and symptoms of narcolepsy (daytime sleepiness, cataplexy, sleep paralysis, hypnagogic hallucinations) (narcolepsy)	sleep apnea (narcolepsy)	total sleep time and REM sleep (narcolepsy)	ESS score during randomized withdrawal [1]	IHSS during randomized withdrawal [1]	change in PGIc scores during randomized withdrawal [1]	overall safety profile [2]
O=C(O)CCCO [GHB, gamma-hydroxybutyrate]	decreases	substantially reduces	reduces	increases	–	–	–	–
O=C(O)CCCO [sodium oxybate]	–	–	–	–	clinically meaningful maintenance of efficacy	clinically meaningful maintenance of efficacy	clinically meaningful maintenance of efficacy	consistent with that previously reported for sodium oxybate (Xyrem)
